# System: NOMO1
# Assay: cell viability relative to DMSO control; higher = less cytotoxic
# Details: 48 h
# Summary of the method: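 Viability was expressed as a per-plate percentage of DMSO wells, with cell-free wells as background. Leukemia cells (NOMO1 or SEM at 500 cells/well, P12-Ichikawa at 1000 cells/well) were adapted for at least four passages in each medium and seeded in 1536-well plates (5 μl). Library compounds in DMSO were pin-dosed over an 11-point threefold series from 47 μM to 0.79 nM, and CellTiter-Glo One luminescence was read after 48 h at 37°C.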
# [1] = HPLM + 10% dialyzed FBS, 0.000781 µM
# [2] = HPLM + 10% dialyzed FBS, 0.00234 µM
# [3] = HPLM + 10% dialyzed FBS, 0.00702 µM
# [4] = HPLM + 10% dialyzed FBS, 0.0211 µM
# [5] = HPLM + 10% dialyzed FBS, 0.0632 µM
# [6] = HPLM + 10% dialyzed FBS, 0.19 µM
# [7] = HPLM + 10% dialyzed FBS, 0.569 µM
# [8] = HPLM + 10% dialyzed FBS, 1.71 µM
# [9] = HPLM + 10% dialyzed FBS, 5.12 µM
# [10] = HPLM + 10% dialyzed FBS, 15.4 µM
# [11] = HPLM + 10% dialyzed FBS, 46.1 µM
# [12] = RPMI 5 mM glucose + 10% FBS, 0.000781 µM
# [13] = RPMI 5 mM glucose + 10% FBS, 0.00234 µM
# [14] = RPMI 5 mM glucose + 10% FBS, 0.00702 µM
# [15] = RPMI 5 mM glucose + 10% FBS, 0.0211 µM
# [16] = RPMI 5 mM glucose + 10% FBS, 0.0632 µM
# [17] = RPMI 5 mM glucose + 10% FBS, 0.19 µM
# [18] = RPMI 5 mM glucose + 10% FBS, 0.569 µM
# [19] = RPMI 5 mM glucose + 10% FBS, 1.71 µM
# [20] = RPMI 5 mM glucose + 10% FBS, 5.12 µM
# [21] = RPMI 5 mM glucose + 10% FBS, 15.4 µM
# [22] = RPMI 5 mM glucose + 10% FBS, 46.1 µM
# [23] = RPMI 5 mM glucose + 10% dialyzed FBS, 0.000781 µM
# [24] = RPMI 5 mM glucose + 10% dialyzed FBS, 0.00234 µM
# [25] = RPMI 5 mM glucose + 10% dialyzed FBS, 0.00702 µM
# [26] = RPMI 5 mM glucose + 10% dialyzed FBS, 0.0211 µM
# [27] = RPMI 5 mM glucose + 10% dialyzed FBS, 0.0632 µM
# [28] = RPMI 5 mM glucose + 10% dialyzed FBS, 0.19 µM
# [29] = RPMI 5 mM glucose + 10% dialyzed FBS, 0.569 µM
# [30] = RPMI 5 mM glucose + 10% dialyzed FBS, 1.71 µM
# [31] = RPMI 5 mM glucose + 10% dialyzed FBS, 5.12 µM
# [32] = RPMI 5 mM glucose + 10% dialyzed FBS, 15.4 µM
# [33] = RPMI 5 mM glucose + 10% dialyzed FBS, 46.1 µM
SMILES,cell viability [1],cell viability [2],cell viability [3],cell viability [4],cell viability [5],cell viability [6],cell viability [7],cell viability [8],cell viability [9],cell viability [10],cell viability [11],cell viability [12],cell viability [13],cell viability [14],cell viability [15],cell viability [16],cell viability [17],cell viability [18],cell viability [19],cell viability [20],cell viability [21],cell viability [22],cell viability [23],cell viability [24],cell viability [25],cell viability [26],cell viability [27],cell viability [28],cell viability [29],cell viability [30],cell viability [31],cell viability [32],cell viability [33]
CCCC(CCC)C(=O)[O-],106%,105%,113%,122%,116%,120%,109%,110%,101%,84.9%,63.8%,86.1%,96.6%,107%,123%,106%,113%,107%,102%,111%,94.4%,92.1%,75.5%,108%,105%,106%,112%,116%,114%,109%,98.6%,110%,101%
O=C(C[C@@H]1C/C=C\CCC(=O)O[C@H](c2ccccc2)CNC1=O)NCc1ccc(Cl)cc1,112%,125%,117%,125%,111%,138%,133%,114%,121%,118%,114%,87.2%,106%,120%,109%,104%,115%,114%,102%,109%,98.5%,110%,92.2%,114%,99.3%,111%,113%,117%,120%,125%,105%,111%,99.5%
O=C(O)CSCC(=O)NC1CCSC1=O (stereo unspecified),122%,112%,105%,95.1%,118%,119%,107%,117%,106%,112%,122%,105%,105%,111%,99.8%,110%,116%,114%,102%,108%,105%,104%,104%,95.7%,114%,104%,109%,113%,108%,118%,105%,100%,102%
CN(c1nccc(=O)[nH]1)C1CCN(c2nc3ccccc3n2Cc2ccc(F)cc2)CC1,90%,104%,116%,117%,128%,124%,116%,120%,105%,111%,99.1%,104%,101%,112%,104%,114%,115%,130%,126%,117%,108%,105%,109%,108%,105%,121%,114%,116%,122%,121%,114%,131%,90.8%
Cc1cc(SCc2sc(-c3ccc(C(F)(F)F)cc3)nc2C)ccc1OCC(=O)O,102%,113%,97.5%,124%,109%,110%,104%,92.3%,102%,94.8%,78.1%,100%,97.1%,85.9%,99.1%,90.3%,95%,90.7%,102%,86.6%,91.4%,81.9%,93.2%,95.1%,101%,108%,92.2%,102%,99.6%,97.7%,101%,89.2%,83.1%
CCNC(=O)Nc1ccc(-c2nc3c(c(N4CCOC[C@@H]4C)n2)CCN(C2COC2)C3)cc1,117%,130%,102%,119%,101%,95.9%,88.6%,66.5%,57.6%,44.5%,40.5%,109%,102%,105%,107%,105%,94.6%,98.9%,84.6%,67.3%,52.8%,46.6%,108%,115%,119%,102%,98.4%,97.2%,101%,66.7%,66.5%,52.8%,45.4%
O=C([O-])[C@H](CC(=O)N1C[C@H]2CCCC[C@H]2C1)Cc1ccccc1,116%,120%,135%,133%,138%,123%,128%,145%,134%,156%,122%,,,,,,,,,,,,,,,,,,,,,,
C=CCc1cc(OC)c(O)c(C(=O)NCCO)c1,98.4%,113%,96%,105%,105%,113%,107%,106%,85.7%,81.4%,74.2%,95.3%,112%,103%,96.1%,101%,101%,96.1%,106%,93.4%,101%,87.1%,98.5%,99.5%,104%,106%,109%,98.6%,89.7%,96.7%,87.7%,84%,79.5%
NCCCCCC(=O)O,97.6%,95.2%,104%,88.4%,107%,119%,110%,110%,96.3%,97%,99.1%,91.2%,94.7%,108%,94.2%,102%,107%,86.4%,92.5%,97.1%,88.2%,95.9%,80.4%,92.8%,107%,93.4%,97.3%,103%,92.7%,87.8%,93.9%,85.6%,96.4%
NCCCC(O)(P(=O)(O)O)P(=O)(O)O.O.O.O.[Na+],,,,,,,,,,,,102%,,,,117%,117%,102%,106%,102%,,,,116%,107%,123%,115%,110%,111%,113%,114%,87.8%,61.7%
CC(=O)Oc1cc2c(s1)CCN(C(C(=O)C1CC1)c1ccccc1F)C2.Cl (stereo unspecified),90.3%,106%,104%,117%,98.3%,107%,116%,64.7%,58%,42.7%,16%,98.5%,92.7%,95.5%,94.3%,97.3%,108%,91.1%,76.8%,64.4%,51.7%,18.7%,88%,95.6%,100%,101%,90.4%,99.6%,103%,86.4%,62.1%,40.3%,25.1%
CN(C)/[N+]([O-])=N/Oc1cc(ON[N+](=O)N2CCN(C(=O)c3cc(Cc4n[nH]c(=O)c5ccccc45)ccc3F)CC2)c([N+](=O)[O-])cc1[N+](=O)[O-],101%,94.9%,100%,100%,115%,119%,109%,104%,102%,126%,117%,99.1%,97.4%,103%,114%,99.4%,102%,113%,122%,119%,101%,106%,93.9%,112%,101%,107%,118%,114%,103%,109%,123%,115%,120%
COc1ccc2c(OCc3nnc4ccc(-c5ccccc5)nn34)ccnc2c1,94.4%,98.9%,86.7%,92.8%,90.2%,93.9%,104%,83.9%,94%,104%,65.2%,113%,123%,116%,116%,117%,114%,117%,116%,112%,113%,116%,113%,123%,133%,119%,129%,102%,131%,116%,115%,119%,122%
CC(C)(C)Cn1c(N)nc2ccc(-c3[nH]c(C(C)(C)C)nc3-c3ccc(F)cc3)nc21,84.9%,84.6%,79.9%,78.4%,90.8%,81%,83.6%,64.3%,75.3%,64.7%,49.6%,84.3%,88.4%,76.3%,75.9%,90.8%,79.9%,82.9%,87.2%,79.5%,83.2%,76.4%,85.3%,92.7%,93.5%,92.2%,87.7%,90.3%,73.1%,73.3%,92%,81.2%,71.4%
OC1=CC2=C(C(=O)\C=C(/O2)C3=CC=CC=C3)C(=C1O)O,93.6%,102%,117%,107%,111%,106%,108%,92.2%,72.6%,82.8%,83.1%,118%,105%,105%,115%,96.8%,111%,103%,111%,84%,52.4%,57.4%,113%,108%,110%,107%,102%,112%,106%,98.6%,96%,55.2%,64.9%
O=C(NCCO[N+](=O)[O-])c1cccnc1,112%,124%,123%,133%,137%,126%,136%,135%,129%,123%,62.3%,,,,,,,,,,,,118%,120%,123%,135%,127%,119%,133%,124%,125%,125%,92.1%
CC1(C)Cc2c(sc(NC(=S)NC(=O)c3ccccc3)c2C(=O)O)CO1,102%,107%,100%,117%,120%,114%,115%,112%,114%,94.5%,95.1%,115%,111%,105%,101%,105%,96.6%,118%,106%,115%,101%,91.5%,87.7%,102%,96.3%,108%,109%,103%,121%,109%,101%,101%,102%
